Experimental findings from DBAASP are described below.

Test in all cases: ≥ marks a high value that may be exact or a test limit, other limits are often not marked, values filed in µg/mL are converted to µM
The subject of experiment [1] is Escherichia coli ATCC 25922.
For experiment [2], the system named is Staphylococcus aureus ATCC 25923.
The subject of experiment [3] is Pseudomonas aeruginosa ATCC 27853.

Converted amounts (≈) assume the structure as drawn. “And” between values parts separate entries of the source, which are not always exact repeats. Equal values may be shown once.

The term MIC denotes the smallest concentration in the dilution series that meets the test's criterion for growth inhibition. The compound `CC(C)C[C@H](NC(=O)[C@H](CCC(N)=O)NC(=O)[C@H](CCCN=C(N)N)NC(=O)[C@H](CCCN=C(N)N)NC(=O)[C@@H]1CCCN1C(=O)[C@H](C)N)C(=O)N[C@@H](CCCCN)C(=O)N[C@@H](Cc1c[nH]c2ccccc12)C(=O)O` [APRRQLKW] yielded an MIC in experiment [1] of 15.2 µM (≈ 16 µg/mL). In other words, the double-digit micromolar range.
In the case of `CC(C)[C@H](NC(=O)[C@H](CCCCN)NC(=O)[C@@H](N)Cc1ccccc1)C(=O)N[C@H](C(=O)N[C@@H](Cc1c[nH]c2ccccc12)C(=O)N[C@@H](CCCCN)C(=O)N[C@H](C(=O)N[C@@H](CCCCN)C(=O)N[C@@H](Cc1c[nH]c2ccccc12)C(=O)N[C@@H](Cc1c[nH]c2ccccc12)C(=O)N[C@@H](CCCCN)C(=O)NCC(N)=O)[C@@H](C)O)[C@@H](C)O` [FKVTWKTKWWKG], the MIC was found to be 7.59 µM (≈ 12.1 µg/mL) in experiment [2] and 4.38 µM (≈ 6.99 µg/mL) in experiment [1].
On to `CC(C)C[C@H](NC(=O)[C@H](C)NC(=O)[C@H](CCCCN)NC(=O)[C@H](C)NC(=O)[C@H](C)NC(=O)CNC(=O)[C@H](CCCCN)NC(=O)[C@H](CC(C)C)NC(=O)[C@H](CC(C)C)NC(=O)[C@H](CC(=O)O)NC(=O)[C@H](CCCCN)NC(=O)[C@H](Cc1ccccc1)NC(=O)CN)C(=O)N[C@H](C(=O)N[C@@H](CCCCN)C(=O)N[C@H](C(=O)N[C@H](C(=O)N[C@@H](CC(C)C)C(=O)N[C@@H](CCCCN)C(N)=O)C(C)C)[C@@H](C)O)C(C)C` [GFKDLLKGAAKALVKTVLK], for which the minimal inhibitory concentration (MIC) stood at 18.8 µM (≈ 37.6 µg/mL) in experiment [2] and 5 µM (≈ 10 µg/mL) in experiment [1].
In experiment [1], `CC[C@H](C)[C@H](NC(=O)CN)C(=O)N[C@@H](CCSC)C(=O)N[C@@H](CC(=O)O)C(=O)N[C@@H](CO)C(=O)N[C@H](C(=O)N[C@@H](CCCCN)C(=O)N[C@@H](CC(N)=O)C(=O)N[C@@H](C)C(=O)N[C@@H](C)C(=O)N[C@@H](CCCCN)C(=O)N[C@@H](CC(N)=O)C(=O)N[C@@H](CC(C)C)C(=O)N[C@@H](C)C(=O)NCC(=O)N[C@@H](CCC(N)=O)C(=O)N[C@@H](CC(C)C)C(=O)N[C@@H](CC(C)C)C(=O)N[C@@H](CC(=O)O)C(=O)N[C@H](C(=O)N[C@H](C(=O)N[C@@H](CCCCN)C(=O)N[C@H]1CSSC[C@@H](C(=O)O)NC(=O)[C@H](C)NC(=O)[C@H]([C@@H](C)O)NC(=O)[C@H]([C@@H](C)CC)NC(=O)[C@H](CCCCN)NC1=O)[C@@H](C)CC)[C@@H](C)O)C(C)C` [GIMDSVKNAAKNLAGQLLDTIKCKITAC] registered a minimum inhibitory concentration (MIC) of 25 µM (≈ 73 µg/mL). That is a double-digit micromolar value.
Take `CC[C@H](C)[C@H](NC(=O)[C@H](CCCN=C(N)N)NC(=O)[C@H](CCCCN)NC(=O)[C@H](C)NC(=O)[C@H](CC(C)C)NC(=O)CN)C(=O)N[C@@H](CCCCN)C(=O)N[C@H](C(=O)N[C@@H](CC(C)C)C(=O)N[C@@H](CC(C)C)C(N)=O)[C@@H](C)O` [GLAKRIKTLL]: the minimal inhibitory concentration (MIC) in experiment [2] and in experiment [1] was more than 34.2 µM throughout.
For `CC[C@H](C)[C@H](NC(=O)[C@H](CC(C)C)NC(=O)[C@H](CCCCN)NC(=O)[C@H](CC(C)C)NC(=O)[C@H](CC(C)C)NC(=O)CN)C(=O)N[C@@H](CCCCN)C(=O)N[C@H](C(=O)N[C@@H](CC(C)C)C(=O)N[C@@H](CC(C)C)C(N)=O)[C@@H](C)O` [GLLKLIKTLL], the MIC in experiment [2] and in experiment [1] was 1.8 µM (≈ 2 µg/mL) each time.
Regarding `CC[C@H](C)[C@H](NC(=O)[C@H](CCCCN)NC(=O)[C@@H](NC(=O)[C@H](CCCN=C(N)N)NC(=O)[C@H](CCCCN)NC(=O)[C@H](CC(C)C)NC(=O)[C@H](CC(C)C)NC(=O)CN)[C@@H](C)CC)C(=O)N[C@@H](CC(C)C)C(=O)N[C@@H](CC(C)C)C(N)=O` [GLLKRIKILL], the minimum inhibitory concentration (MIC) amounted to 12 µM (≈ 14 µg/mL) in experiment [2] and 7.72 µM (≈ 8.99 µg/mL) in experiment [1].
For the compound `CC[C@H](C)[C@H](NC(=O)[C@H](CCCN=C(N)N)NC(=O)[C@H](CCCCN)NC(=O)[C@H](CC(C)C)NC(=O)[C@H](CC(C)C)NC(=O)CN)C(=O)N[C@@H](CCCCN)C(=O)N[C@@H](CO)C(=O)N[C@@H](CC(C)C)C(=O)N[C@@H](CC(C)C)C(N)=O` [GLLKRIKSLL], the minimal inhibitory concentration (MIC) in experiment [1] came to 100 µM (≈ 114 µg/mL).
`CC[C@H](C)[C@H](NC(=O)[C@H](CCCN=C(N)N)NC(=O)[C@H](CCCCN)NC(=O)[C@H](CC(C)C)NC(=O)[C@H](CC(C)C)NC(=O)CN)C(=O)N[C@@H](CCCCN)C(=O)N[C@H](C(=O)N[C@@H](CC(C)C)C(=O)N[C@@H](C)C(N)=O)[C@@H](C)O` [GLLKRIKTLA]: the MIC in experiment [2] and in experiment [1] was more than 43.1 µM throughout.
Turning to `CC[C@H](C)[C@H](NC(=O)[C@H](CCCN=C(N)N)NC(=O)[C@H](CCCCN)NC(=O)[C@H](CC(C)C)NC(=O)[C@H](CCSC)NC(=O)CN)C(=O)N[C@@H](CCCCN)C(=O)N[C@H](C(=O)N[C@@H](CC(C)C)C(=O)N[C@@H](CCSC)C(N)=O)[C@@H](C)O` [GMLKRIKTLM], in experiment [1], the minimal inhibitory concentration (MIC) was more than 200 µM.
`CC(C)C[C@H](NC(=O)[C@H](C)NC(=O)[C@H](CCCCN)NC(=O)[C@H](CC(C)C)NC(=O)[C@H](C)NC(=O)[C@H](CCCCN)NC(=O)[C@H](CCCCN)NC(=O)[C@H](CC(C)C)NC(=O)[C@H](C)NC(=O)[C@H](CCCCN)NC(=O)[C@H](CC(C)C)NC(=O)[C@H](C)NC(=O)[C@H](CCCCN)NC(=O)[C@H](CCCCN)NC(=O)[C@H](CC(C)C)NC(=O)[C@H](C)NC(=O)[C@H](CCCCN)NC(=O)[C@H](CC(C)C)NC(=O)[C@H](C)NC(=O)[C@@H](N)CCCCN)C(=O)N[C@@H](CCCCN)C(N)=O` [KALKALKKALKALKKALKALK]: the MIC in experiment [2] stood at 8 µM (≈ 18.2 µg/mL); in experiment [1], 4 µM (≈ 9.1 µg/mL); in experiment [3] it was 4 µM (≈ 9.1 µg/mL).
On to `CC[C@H](C)[C@H](NC(=O)[C@H](CCCCN)NC(=O)[C@H](CCCN=C(N)N)NC(=O)[C@H](CC(C)C)NC(=O)[C@H](CCCN=C(N)N)NC(=O)[C@H](CO)NC(=O)[C@H](Cc1c[nH]c2ccccc12)NC(=O)[C@@H](NC(=O)[C@@H](N)CCCCN)C(C)C)C(=O)N[C@@H](Cc1ccccc1)C(=O)N[C@@H](CO)C(=O)N[C@H](C(=O)N[C@@H](CCCN=C(N)N)C(N)=O)[C@@H](C)O` [KVWSRLRKIFSTR], for which the MIC in experiment [1] was 2.64 µM and 5.27 µM.
In turn, `CC(C)C[C@H](NC(=O)[C@H](Cc1ccccc1)NC(=O)[C@@H]1CCCN1C(=O)[C@H](C)NC(=O)[C@H](Cc1c[nH]c2ccccc12)NC(=O)[C@H](C)NC(=O)[C@@H]1CCCN1C(=O)[C@H](Cc1ccccc1)NC(=O)[C@H](CCCN=C(N)N)NC(=O)[C@H](CCCN=C(N)N)NC(=O)[C@@H](N)C(C)C)C(=O)N[C@@H](CCCN=C(N)N)C(=O)N[C@@H](CCCN=C(N)N)C(N)=O` [VRRFPAWAPFLRR] registered an MIC in experiment [1] of 90.5 µM (≈ 151 µg/mL).
On to `CC(C)C[C@H](NC(=O)[C@H](Cc1ccccc1)NC(=O)[C@@H]1CCCN1C(=O)[C@H](C)NC(=O)[C@H](C)NC(=O)[C@H](Cc1c[nH]c2ccccc12)NC(=O)[C@@H]1CCCN1C(=O)[C@H](Cc1ccccc1)NC(=O)[C@H](CCCN=C(N)N)NC(=O)[C@H](CCCN=C(N)N)NC(=O)[C@@H](N)C(C)C)C(=O)N[C@@H](CCCN=C(N)N)C(=O)N[C@@H](CCCN=C(N)N)C(N)=O` [VRRFPWAAPFLRR], for which, in experiment [1], the MIC amounted to 90.5 µM (≈ 151 µg/mL).
For the compound `CC(C)[C@H](NC(=O)[C@H](CC(=O)O)NC(=O)[C@H](CO)NC(=O)[C@H](CCCCN)NC(=O)[C@@H](N)Cc1c[nH]c2ccccc12)C(=O)N[C@@H](CCCN=C(N)N)C(=O)N[C@@H](CCCN=C(N)N)C(=O)N[C@@H](Cc1c[nH]c2ccccc12)C(=O)N[C@@H](CCCN=C(N)N)C(=O)N[C@@H](CO)C(=O)N[C@@H](CCCN=C(N)N)C(=O)N[C@@H](Cc1ccc(O)cc1)C(N)=O` [WKSDVRRWRSRY], the MIC was more than 100 µM in experiment [2], 64 µM (≈ 108 µg/mL) in experiment [1] and more than 100 µM in experiment [3].
